Data taken from ChEMBL document CHEMBL1268867, “ATPases as drug targets: insights from heat shock proteins 70 and 90” (J Med Chem, 2010).

Legend:
[1] = Binding affinity to Hsp70 nucleotide binding domain
[2] = target: Heat shock cognate 71 kDa protein (Homo sapiens, UniProt P11142); experiment: Binding affinity to human Hsc70 by isothermal calorimetry assay
[3] = target: Heat shock cognate 71 kDa protein (Bos taurus, UniProt P19120); experiment: Binding affinity to bovine Hsc70 by filter binding assay
Heat shock cognate 71 kDa protein (Bos taurus, UniProt P19120), sequence (P19120 whole entry): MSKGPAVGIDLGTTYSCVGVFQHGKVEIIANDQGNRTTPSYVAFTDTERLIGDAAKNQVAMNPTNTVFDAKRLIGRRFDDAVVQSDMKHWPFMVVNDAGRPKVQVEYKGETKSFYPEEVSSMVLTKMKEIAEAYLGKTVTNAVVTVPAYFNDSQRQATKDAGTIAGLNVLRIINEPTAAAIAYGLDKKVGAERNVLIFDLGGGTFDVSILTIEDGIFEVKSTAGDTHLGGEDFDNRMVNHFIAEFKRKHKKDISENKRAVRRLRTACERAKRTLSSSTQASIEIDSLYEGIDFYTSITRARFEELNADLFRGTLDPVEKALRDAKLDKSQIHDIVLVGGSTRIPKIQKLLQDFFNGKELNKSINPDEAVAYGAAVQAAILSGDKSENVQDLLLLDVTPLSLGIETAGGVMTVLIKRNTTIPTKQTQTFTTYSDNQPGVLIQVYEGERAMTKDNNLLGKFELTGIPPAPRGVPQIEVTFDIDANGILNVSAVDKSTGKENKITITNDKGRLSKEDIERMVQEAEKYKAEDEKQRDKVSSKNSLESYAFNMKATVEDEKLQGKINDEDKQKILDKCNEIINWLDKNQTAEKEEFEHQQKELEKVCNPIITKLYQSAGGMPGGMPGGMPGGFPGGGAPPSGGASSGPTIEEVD

Heat shock cognate 71 kDa protein (Homo sapiens, UniProt P11142), sequence (P11142 whole entry): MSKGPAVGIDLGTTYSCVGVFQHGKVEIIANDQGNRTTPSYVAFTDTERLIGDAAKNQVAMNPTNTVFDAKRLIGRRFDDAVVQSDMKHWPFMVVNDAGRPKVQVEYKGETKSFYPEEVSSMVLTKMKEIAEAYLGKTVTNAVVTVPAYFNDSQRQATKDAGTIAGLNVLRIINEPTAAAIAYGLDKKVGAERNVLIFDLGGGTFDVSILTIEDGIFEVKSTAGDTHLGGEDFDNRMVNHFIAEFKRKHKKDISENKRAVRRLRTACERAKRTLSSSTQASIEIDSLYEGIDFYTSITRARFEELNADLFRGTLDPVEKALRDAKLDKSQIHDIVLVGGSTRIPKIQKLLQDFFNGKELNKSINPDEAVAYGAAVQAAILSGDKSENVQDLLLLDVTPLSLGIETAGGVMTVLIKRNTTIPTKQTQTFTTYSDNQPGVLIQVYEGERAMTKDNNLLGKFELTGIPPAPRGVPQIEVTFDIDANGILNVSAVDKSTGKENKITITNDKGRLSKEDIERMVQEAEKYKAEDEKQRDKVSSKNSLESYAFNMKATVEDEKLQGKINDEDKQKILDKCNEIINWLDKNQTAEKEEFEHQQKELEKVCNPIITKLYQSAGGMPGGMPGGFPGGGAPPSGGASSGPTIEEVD

SMILES | Kd [1] [nM] | Kd [2] [nM] | Kd [3] [nM]
N#Cc1ccc(COC[C@H]2O[C@@H](n3c(NCc4ccc(Cl)c(Cl)c4)nc4c(N)ncnc43)[C@H](O)[C@@H]2O)cc1 | 300 | – | –
Nc1ncnc2c1ncn2[C@@H]1O[C@H](COP(=O)(O)OP(=O)(O)O)[C@@H](O)[C@H]1O [ADENOSINE DIPHOSPHATE] | – | 260 | 110
